Experimental data published in EPA's ToxValDB 9.5 (doi:10.2903/j.efsa.2020.6232).

How the values were obtained:
[1] = tested on: Colinus virginianus; conditions: acute, oral, mortality
[2] = tested on: Pimephales promelas; conditions: chronic/long-term; duration: 28 days
[3] = tested on: Oncorhynchus mykiss; conditions: acute; duration: 96 hours; mortality
[4] = tested on: Coturnix japonica; conditions: reproduction developmental
[5] = tested on: Bibionidae; conditions: chronic/long-term; duration: 23 days; reproduction
[6] = tested on: Rattus norvegicus
[7] = tested on: Hypoaspis aculeifer; conditions: chronic/long-term; reproduction
[8] = tested on: Apis mellifera; conditions: acute, mortality
[9] = tested on: Tagia sp.; conditions: chronic/long-term; reproduction
[10] = tested on: Typhlodromus pyri; test: LR50; higher = less toxic; conditions: mortality

Work on `Cc1ccc(-c2c(Cl)nc(C#N)n2S(=O)(=O)N(C)C)cc1` yielded an LD50 ([1]; diet) of over 1280 mg/kg-day, an LD50 [1] of over 2000 mg/kg-day and an NOEC [2] of 0.09 mg/L. For the same compound, the LC50 [3] was over 0.107 µg/mL, the NOAEL [4] was 151 mg/kg-day and the NOEC [5] was 0.0117 mg/L. For the same compound, the LD50 ([6]; acute, oral, mortality) was over 5000 mg/kg-day, the NOAEL ([6]; chronic, duration: 2 years, organ weight) was 17 mg/kg-day and the NOAEL ([6]; reproduction developmental, body weight) was 89 mg/kg-day. For the same compound, the NOAEL ([6]; subchronic, duration: 90 days, oral, organ weight) was 29.5 mg/kg-day, the NOEC [7] was 18.7 mg/kg and the LD50 ([8]; dermal) was 9.52 µg/piece. The LD50 ([8]; oral, unspecified) was over 31.8 µg/piece, the NOEC [9] was 2 mg/kg and the LR50 ([10]; acute, duration: 10 days) was 256 g/ha. For the same compound, the LR50 ([10]; not reported) was 80 g/ha.
